Test results published in US8624027B2, “Combination therapy for treating cancer and diagnostic assays for use therein” (AbbVie Inc., priority 2005, dated 2014).
Where two headings read alike, the source gives them in different places.

Legend:
[1] = test system: NCI-H146 human small cell lung carcinoma cells; test: Cellular efficacy in human tumor cell line (MTS viability assay); format: cell-based; conditions: NCI-H146, 10% human serum, 48 hours
Method: NCI-H146 (ATCC, Manassas, Va.) human small cell lung carcinoma cells were plated 50,000 cells per well in 96-well tissue culture plates in a total volume of 100 μL tissue culture medium supplemented with 10% human serum (Invitrogen, Carlsbad, Calif.) instead of fetal bovine serum and treated with a 2-fold serial dilution of the compounds of interest from 10 μM to 0.020 μM. Each concentration was tested in duplicate at least 3 separate times. The number of viable cells following 48 hours of compound treatment was determined using the CellTiter 96® AQueous non-radioactive cell proliferation MTS assay according to manufacturer's recommendations (Promega Corp., Madison, Wis.).

Bcl-XL protein = Bcl-XL protein (Homo sapiens, UniProt Q07817); test: Bcl-XL binding affinity, fluorescence polarization with fluorescein-labeled BAD peptide; conditions: Wang's equation, read-out: Target Binding Affinity Ki (Bcl-XL)
Sequence of Bcl-XL protein (Q07817 with tags, fused parts or gaps DEL45-84): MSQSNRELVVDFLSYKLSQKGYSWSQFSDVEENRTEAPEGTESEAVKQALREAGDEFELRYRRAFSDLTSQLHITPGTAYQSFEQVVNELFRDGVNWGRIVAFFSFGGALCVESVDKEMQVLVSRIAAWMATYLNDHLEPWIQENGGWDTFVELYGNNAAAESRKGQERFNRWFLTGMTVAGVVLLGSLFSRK
Method: A mixture comprising 125 μL per well of assay buffer (20 mM phosphate buffer (pH 7.4), 1 mM EDTA, 50 mM NaCl, 0.05% PF-68), 6 nM of Bcl-XL protein (prepared as described in Science 1997, 275, 983-986), 1 nM fluorescein-labeled BAD peptide (prepared in-house) and the DMSO solution of the compound was shaken for 2 minutes and placed in a LJL Analyst (LJL Bio Systems, CA). A negative control (DMSO, 15 nM BAD peptide, assay buffer) and a positive control (DMSO, 1 nM BAD peptide, 6 nM Bcl-XL, assay buffer) were used to determine the range of the assay. Polarization was measured at room temperature using a continuous Fluorescein lamp (excitation 485 nm, emission 530 nm). Percentage of inhibition was determined by (1-((mP value of well-negative control)/range))×100%.

[2] = Pharmacokinetic evaluation in rat; format: in vivo; conditions: male, Sprague-Dawley, plasma; for AUC(0-inf): single 5 mg/kg oral dose, Table 1, read-out: Pharmacokinetic area under the plasma concentration Curve (rat) AUC0-∞; for AUC / Cmax: 5 mg/kg, oral; for AUC: Table 3, read-out: Pharmacokinetic area under the plasma concentration Curve (rat) AUC; for Cmax: Table 3, read-out: Pharmacokinetic peak plasma concentration (rat) Cmax
Method: The pharmacokinetic behavior of compounds of this disclosure was determined following a single 2 mg/kg intravenous or 5 mg/kg oral dose in male Sprague-Dawley derived rats (n=3 per group). The compounds were prepared as 2 mg/mL solution in a 10% DMSO in PEG-400 formulation for both oral and intravenous administration. The 1 mL/kg intravenous dose was administered as a slow bolus (about 1-2 minutes) in the jugular vein of a rat under light ether anesthetic. The oral dose was administered by gavage. Serial blood samples were obtained from a tail vein of each rat prior 0.1 (IV only), 0.25, 0.5, 1, 1.5, 2, 3, 4, 6, 8 and 24 hours after dosing. The heparinized samples were thoroughly mixed and placed in an ice bath. Plasma was separated by centrifugation and stored frozen prior to analysis.
The compounds of interest were separated from the plasma using protein precipitation with acetonitrile. A plasma (100-200 μL, sample or spiked standard) aliquot was combined with 50 μL of internal standard (structurally related analog prepared in acetonitrile) and 1 ml acetonitrile in a 96-well polypropylene deep well plate. The plates were vortexed for 30 seconds followed by centrifugation (3500 rpm×15 minutes, 4° C.). In an automated manner, the supernatant was transferred to a clean 96-well plate. The samples were evaporated to near dryness on a Micro-Vap™ under a stream of dry nitrogen over low heat (˜37° C.). The samples were reconstituted vortexing with 0.2 mL 5% DMSO in acetonitrile. A 0.1-0.2 ml aliquot of acetonitrile: 0.1% trifluoroacetic acid (20:80, by volume) was added to each well, followed by an additional 30 second vortexing. The plates were centrifuged (3500 rpm×15 minutes, 4° C.) prior to HPLC-MS/MS analysis. Samples were analyzed simultaneously with spiked plasma standards. All samples from each study were analyzed as a single batch on the LC-MS/MS.
The compounds of interest and the internal standard were separated from each other and co-extracted contaminants on a 50×3 mm Keystone Betasil CN 5 μm column with an acetonitrile: 0.1% trifluoroacetic acid mobile phase (50:50, by volume) at a flow rate of 0.7 ml/min. Analysis was performed on a Sciex API 300™ Biomolecular Mass Analyzer using a heated nebulizer interface. Peak areas of the title compounds and internal standards were determined using the Sciex MacQuan™ software. Calibration curves were derived from peak area ratio (parent drug/internal standard) of the spiked rat plasma standards using least squares linear regression of the ratio versus the theoretical concentration. The methods were generally linear over the range of the standard curve (correlation coefficients >0.99) with an estimated quantitation limit of 0.01 μg/mL. The plasma concentration data for each animal were submitted to multi-exponential curve fitting using WinNonlin. The area under the plasma concentration-time curve from 0 to t hours (time of the last measurable plasma concentration) after dosing (AUC0-t) was calculated using the linear trapezoidal rule for the plasma concentration-time profiles. The residual area extrapolated to infinity, determined as the final measured plasma concentration (Ct) divided by the terminal elimination rate constant (β), was added to AUC0-t to produce the total area under the curve (AUC0-∞). Ki values shown in the tables below were determined using Wang's equation (Wang Z X., An Exact Mathematical Expression For Describing Competitive Binding Of Two Different Ligands To A Protein Molecule. FEBS Lett. 1995; 360:111-4)).

Bcl-2 protein = target: T1, Bcl-2 protein (Homo sapiens, UniProt P10415, DELINS35-91DVEENRTEAPEGTESE, form not given); test: Bcl-2 binding affinity, fluorescence polarization with fluorescein-labeled BAX peptide; conditions: Wang's equation, read-out: Target Binding Affinity Ki (Bcl-2)
T1 construct: fused on or other part: A short piece of the Bcl-xL (Q07817) loop replaces Bcl-2 loop residues 35-91; The C-terminal membrane anchor is absent
T1 sequence (P10415 with tags, fused parts or gaps with the stated changes): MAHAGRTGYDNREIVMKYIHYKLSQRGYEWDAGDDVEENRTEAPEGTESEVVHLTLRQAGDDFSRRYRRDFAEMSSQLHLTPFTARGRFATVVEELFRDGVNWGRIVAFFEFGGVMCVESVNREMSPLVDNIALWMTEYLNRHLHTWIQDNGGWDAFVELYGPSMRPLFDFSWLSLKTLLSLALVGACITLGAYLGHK

[3] = Table 1, read-out: NCI-H146 Cellular Efficacy EC50
[4] = Table 3, read-out: NCI-H146 Cellular Efficacy H146 EC50

EC50 [1, 3] | Ki (Bcl-XL protein) | AUC(0-inf) [2] | Ki (Bcl-2 protein) | EC50 [1, 4] | AUC [2] | Cmax [2] | SMILES
58.7 nM | ≤ 1 nM | 6.34 µM·h | ≤ 1 nM |  |  |  | CC(C)N(C)CC[C@H](CSc1ccccc1)Nc1ccc(S(=O)(=O)NC(=O)c2ccc(N3CCN(CC4=C(c5ccc(Cl)cc5)CCC(C)(C)C4)CC3)cc2)cc1S(=O)(=O)C(F)(F)F [Example 4, N-(4-(4-((2-(4-chlorophenyl)-5,5-dimethylcyclohex-1-en-1-yl)methyl)piperazin-1-yl)benzoyl)-4-(((1R)-3-(isopropyl(methyl)amino)-1-((phenylsulfanyl)methyl)propyl)amino)-3-((trifluoromethyl)sulfonyl)benzenesulfonamide]
38.8 nM | ≤ 1 nM | 2.22 µM·h | ≤ 1 nM |  |  |  | CC(C)N(C)CC[C@H](CSc1ccccc1)Nc1ccc(S(=O)(=O)NC(=O)c2ccc(N3CCN(CC4=C(c5ccc(Cl)cc5)CCCCC4)CC3)cc2)cc1S(=O)(=O)C(F)(F)F [Example 5, N-(4-(4-((2-(4-chlorophenyl)-1-cyclohepten-1-yl)methyl)piperazin-1-yl)benzoyl)-4-(((1R)-3-(isopropyl(methyl)amino)-1-((phenylsulfanyl)methyl)propyl)amino)-3-((trifluoromethyl)sulfonyl)benzenesulfonamide]
1 nM | ≤ 1 nM | 0.91 µM·h | ≤ 1 nM | 10 nM | 0.913 µM·h | 113 nM | O=C(NS(=O)(=O)c1ccc(N[C@H](CCN2C[C@@H]3C[C@H]2CO3)CSc2ccccc2)c(S(=O)(=O)C(F)(F)Cl)c1)c1ccc(N2CCN(CC3=C(c4ccc(Cl)cc4)CCCC3)CC2)cc1 [Example 6, 3-((chloro(difluoro)methyl)sulfonyl)-N-(4-(4-((2-(4-chlorophenyl)cyclohex-1-en-1-yl)methyl)piperazin-1-yl)benzoyl)-4-(((1R)-3-((1S,4S)-2-oxa-5-azabicyclo[2.2.1]hept-5-yl)-1-((phenylsulfanyl)methyl)propyl)amino)benzenesulfonamide]
58.9 nM | ≤ 1 nM | 3.87 µM·h | ≤ 1 nM | 59 nM | 3.87 µM·h | 518 nM | O=C(NS(=O)(=O)c1ccc(N[C@H](CCN2CCOCC2)CSc2ccccc2)c(S(=O)(=O)C(F)(F)F)c1)c1ccc(N2CCN(CC3=C(c4ccc(Cl)cc4)CCCC3)CC2)cc1 [Example 7, N-(4-(4-((2-(4-chlorophenyl)cyclohex-1-en-1-yl)methyl)piperazin-1-yl)benzoyl)-4-(((1R)-3-(morpholin-4-yl)-1-((phenylsulfanyl)methyl)propyl)amino)-3-((trifluoromethyl)sulfonyl)benzenesulfonamide]
13.7 nM | ≤ 1 nM | 1.88 µM·h | ≤ 1 nM | 14 nM | 1.88 µM·h | 156 nM | O=C(NS(=O)(=O)c1ccc(N[C@H](CCN2CC3CC2CO3)CSc2ccccc2)c(S(=O)(=O)C(F)(F)F)c1)c1ccc(N2CCN(CC3=C(c4ccc(Cl)cc4)CCCC3)CC2)cc1 (stereo partly drawn) [Example 9, N-(4-(4-((2-(4-chlorophenyl)cyclohex-1-en-1-yl)methyl)piperazin-1-yl)benzoyl)-4-(((1R)-3-(2-oxa-5-azabicyclo[2.2.1]hept-5-yl)-1-((phenylsulfanyl)methyl)propyl)amino)-3-((trifluoromethyl)sulfonyl)benzenesulfonamide]
34.2 nM | ≤ 1 nM | 2.48 µM·h | ≤ 1 nM |  |  |  | CC1(C)CCC(c2ccc(Cl)cc2)=C(CN2CCN(c3ccc(C(=O)NS(=O)(=O)c4ccc(N[C@H](CCN5CC6CC5CO6)CSc5ccccc5)c(S(=O)(=O)C(F)(F)F)c4)cc3)CC2)C1 (stereo partly drawn) [Example 10, N-(4-(4-((2-(4-chlorophenyl)-5,5-dimethylcyclohex-1-en-1-yl)methyl)piperazin-1-yl)benzoyl)-4-(((1R)-3-(2-oxa-5-azabicyclo[2.2.1]hept-5-yl)-1-((phenylsulfanyl)methyl)propyl)amino)-3-((trifluoromethyl)sulfonyl)benzenesulfonamide]
20.6 nM | ≤ 3 nM | 2.4 µM·h | ≤ 2 nM |  |  |  | CC1(C)CCC(c2ccc(Cl)cc2)=C(CN2CCN(c3ccc(C(=O)NS(=O)(=O)c4ccc(N[C@H](CCN5CC6CC5CO6)CSc5ccccc5)c(S(=O)(=O)C(F)(F)Cl)c4)cc3)CC2)C1 (stereo partly drawn) [Example 11, 3-((chloro(difluoro)methyl)sulfonyl)-N-(4-(4-((2-(4-chlorophenyl)-5,5-dimethylcyclohex-1-en-1-yl)methyl)piperazin-1-yl)benzoyl)-4-(((1R)-3-(2-oxa-5-azabicyclo[2.2.1]hept-5-yl)-1-((phenylsulfanyl)methyl)propyl)amino)benzenesulfonamide]
27.1 nM | ≤ 1 nM | 2.07 µM·h | ≤ 1 nM |  |  |  | O=C(NS(=O)(=O)c1ccc(N[C@H](CCN2CC3CC2CO3)CSc2ccccc2)c(S(=O)(=O)C(F)(F)F)c1)c1ccc(N2CCN(CC3=C(c4ccc(Cl)cc4)CCCCC3)CC2)cc1 (stereo partly drawn) [Example 12, N-(4-(4-((2-(4-chlorophenyl)cyclohept-1-en-1-yl)methyl)piperazin-1-yl)benzoyl)-4-(((1R)-3-(2-oxa-5-azabicyclo[2.2.1]hept-5-yl)-1-((phenylsulfanyl)methyl)propyl)amino)-3-((trifluoromethyl)sulfonyl)benzenesulfonamide]
19 nM | ≤ 1 nM | 2.06 µM·h | ≤ 1 nM |  |  |  | O=C(NS(=O)(=O)c1ccc(N[C@H](CCN2CC3CC2CO3)CSc2ccccc2)c(S(=O)(=O)C(F)(F)Cl)c1)c1ccc(N2CCN(CC3=C(c4ccc(Cl)cc4)CCCCC3)CC2)cc1 (stereo partly drawn) [Example 13, 3-((chloro(difluoro)methyl)sulfonyl)-N-(4-(4-((2-(4-chlorophenyl)cyclohept-1-en-1-yl)methyl)piperazin-1-yl)benzoyl)-4-(((1R)-3-(2-oxa-5-azabicyclo[2.2.1]hept-5-yl)-1-((phenylsulfanyl)methyl)propyl)amino)benzenesulfonamide]

SMILES | EC50 [1, 3] | Ki (Bcl-XL protein) | AUC(0-inf) [2] | Ki (Bcl-2 protein) | EC50 [1, 4] | AUC [2] | Cmax [2]
O=C(NS(=O)(=O)c1ccc(N[C@H](CCN2C3CCC2CC3)CSc2ccccc2)c(S(=O)(=O)C(F)(F)F)c1)c1ccc(N2CCN(CC3=C(c4ccc(Cl)cc4)CCCC3)CC2)cc1 [Example 8, 4-(((1R)-3-(7-azabicyclo[2.2.1]hept-7-yl)-1-((phenylsulfanyl)methyl)propyl)amino)-N-(4-(4-((2-(4-chlorophenyl)cyclohex-1-en-1-yl)methyl)piperazin-1-yl)benzoyl)-3-((trifluoromethyl)sulfonyl)benzenesulfonamide] | 21.2 nM | ≤ 1 nM | 1.1 µM·h | ≤ 1 nM | 21 nM | 1.1 µM·h | 71 nM
